Measured values published in patent US20240132498A1, “CRYSTALLINE FORMS OF 5-(3,4-DIFLUOROBENZYL)-8-((1R,4R)-4-METHYLCYCLOHEXYL)-6,9-DIOXO-2,5,8-TRIAZASPIRO[3.5]NONANE-2-CARBALDEHYDE” (Cytokinetics, Incorporated, priority 2022, published 2024).

Key:
[1] = Projected single-dose CL and Vss values in humans (allometric scaling); conditions: human, allometric scaling of mouse, rat, dog, cynomolgus monkey IV PK
Experimental: Allometric scaling for the prediction of human Clearance and Volume of Distribution was based on interspecies simple allometric scaling of mouse, rat, dog, and cynomolgus monkey intravenous pharmacokinetic parameters (Boxenbaum, J Pharmacokinet Biopharm 10:201-27, 1982). Prediction of human CL was performed by extrapolating pre-clinical species' plasma intravenous clearance. The ‘rule of exponents’ (Mahmood & Balian, Life Sci. 59:579-85, 1996) was examined in this prediction, where it has been proposed that, when the exponent of simple allometry lies between 0.71 and 0.99, a correction factor based on Maximum Life Span (MLP) of this species can be applied and, when the exponent of simple allometry is greater than 1.0, a correction factor based on Brain Weight (BrW) can be applied, or a protein binding correction can be applied when available. In a similar manner, simple allometric scaling was employed to predict human Volume of Distribution. This method has been used successfully for varied drugs (Ward & Smith, Drug Metab Dispos 32:612-19, 2004; McGinnity et al., Curr Drug Metab 8:463-79, 2007).

[2] = Rat single dose pharmacokinetics; format: in vivo; conditions: male, plasma, iv, Sprague Dawley rats; for Vd: read-out: Vss
Experimental: Male Sprague Dawley rats were obtained from Zhejiang Vital River Laboratory Animal Technology Co., Ltd. The animals in IV group had free access to water and food. The animals in PO group were fasted overnight before dosing and provided with food 2 hours post dosing. The IV dose solution was prepared in 10% DMA/50% PG/40% HPOCD solution (40% w/v aqueous HPOCD) at a concentration of 1 mg/mL. The oral dosing suspension was prepared by suspending Test Article in 0.5% HPMC/0.1% Tween 80 in water at a concentration 0.2 mg/mL. Concentrations of IV and PO doses were measured at the end of the study. Pharmacokinetic parameters were calculated using the nominal dose values if the measured values were within 20% of the nominal values. Three rats were dosed IV via a bolus injection via caudal vein. Three rats per dose group were dosed by oral gavage. Blood samples were collected from the jugular vein cannula at predose, 5 (IV only),15, 30 minutes, and 1, 2, 4, 6, and 24 hours post-dose. Blood volumes were replaced with an equal amount of sterile 0.9% saline. Blood samples were centrifuged and the collected plasma was stored at −80° C. for subsequent analysis. Plasma samples were analyzed for Test Article concentrations using a LC/MS/MS method. Briefly, a 50 μL aliquot of each plasma sample was mixed with 100 μL of acetonitrile that contained an internal standard. The mixture was vortexed and centrifuged. Ten (10) μL of the resulting solution was injected onto a reverse-phase C18 column and the resultant peaks detected on a LC/MS/MS equipped with a turbo ionspray ionization source. Sample concentrations below the limit of quantification (BLQ) were treated as zero for pharmacokinetic calculations. Pharmacokinetic parameters were estimated from individual animals using noncompartmental analysis of the concentration-time data (Phoenix WinNonLin software, version 64; Pharsight, Mountain View, CA). The elimination rate constant (k) was calculated as the absolute value of the slope of the linear regression of logarithm (log) of the concentration versus time for the last three data points of the concentration-time profiles. Apparent elimination half-life (t1/2) values were calculated as In(2)/k. Area under the concentration-time curve (AUC) values were estimated using linear trapezoidal method. AUC values were calculated from the dosing time to the last measurable concentration. AUC∞ values were calculated as the sum of the corresponding AUC and the ratio of the last detectable concentration divided by k (AUCt-∞). Plasma clearance (CL) was calculated from Dose/AUC∞. Mean resident time (MRT) was estimated by moment analysis. Volume of distribution at steady state (Vss) was calculated from MRT∞×CL. Maximum concentration (Cmax) and time to reach Cmax (tmax) were recorded as observed. Bioavailability was calculated from the ratio of dose normalized AUC∞,po of individual rats/mean dAUC∞,iv×100% where dAUC was the dose normalized AUC value. Compounds tested were prepared in accordance with the synthetic procedures described herein.

[3] = biological target: T1, bovine cardiac myofibrils (Bos taurus, UniProt Q9BE39); experiment: Skinned bovine cardiac myofibril ATPase assay (PK/LDH-coupled); format: biochemical; conditions: bovine cardiac myofibril ATPase activity; Ca2+ for 50% or 75% activation
T1 construct: full-length cardiac myosin in the context of the native sarcomere; from tissue; host or cells: bovine cardiac left ventricular tissue, detergent-skinned myofibrils
T1 sequence (Q9BE39 whole entry): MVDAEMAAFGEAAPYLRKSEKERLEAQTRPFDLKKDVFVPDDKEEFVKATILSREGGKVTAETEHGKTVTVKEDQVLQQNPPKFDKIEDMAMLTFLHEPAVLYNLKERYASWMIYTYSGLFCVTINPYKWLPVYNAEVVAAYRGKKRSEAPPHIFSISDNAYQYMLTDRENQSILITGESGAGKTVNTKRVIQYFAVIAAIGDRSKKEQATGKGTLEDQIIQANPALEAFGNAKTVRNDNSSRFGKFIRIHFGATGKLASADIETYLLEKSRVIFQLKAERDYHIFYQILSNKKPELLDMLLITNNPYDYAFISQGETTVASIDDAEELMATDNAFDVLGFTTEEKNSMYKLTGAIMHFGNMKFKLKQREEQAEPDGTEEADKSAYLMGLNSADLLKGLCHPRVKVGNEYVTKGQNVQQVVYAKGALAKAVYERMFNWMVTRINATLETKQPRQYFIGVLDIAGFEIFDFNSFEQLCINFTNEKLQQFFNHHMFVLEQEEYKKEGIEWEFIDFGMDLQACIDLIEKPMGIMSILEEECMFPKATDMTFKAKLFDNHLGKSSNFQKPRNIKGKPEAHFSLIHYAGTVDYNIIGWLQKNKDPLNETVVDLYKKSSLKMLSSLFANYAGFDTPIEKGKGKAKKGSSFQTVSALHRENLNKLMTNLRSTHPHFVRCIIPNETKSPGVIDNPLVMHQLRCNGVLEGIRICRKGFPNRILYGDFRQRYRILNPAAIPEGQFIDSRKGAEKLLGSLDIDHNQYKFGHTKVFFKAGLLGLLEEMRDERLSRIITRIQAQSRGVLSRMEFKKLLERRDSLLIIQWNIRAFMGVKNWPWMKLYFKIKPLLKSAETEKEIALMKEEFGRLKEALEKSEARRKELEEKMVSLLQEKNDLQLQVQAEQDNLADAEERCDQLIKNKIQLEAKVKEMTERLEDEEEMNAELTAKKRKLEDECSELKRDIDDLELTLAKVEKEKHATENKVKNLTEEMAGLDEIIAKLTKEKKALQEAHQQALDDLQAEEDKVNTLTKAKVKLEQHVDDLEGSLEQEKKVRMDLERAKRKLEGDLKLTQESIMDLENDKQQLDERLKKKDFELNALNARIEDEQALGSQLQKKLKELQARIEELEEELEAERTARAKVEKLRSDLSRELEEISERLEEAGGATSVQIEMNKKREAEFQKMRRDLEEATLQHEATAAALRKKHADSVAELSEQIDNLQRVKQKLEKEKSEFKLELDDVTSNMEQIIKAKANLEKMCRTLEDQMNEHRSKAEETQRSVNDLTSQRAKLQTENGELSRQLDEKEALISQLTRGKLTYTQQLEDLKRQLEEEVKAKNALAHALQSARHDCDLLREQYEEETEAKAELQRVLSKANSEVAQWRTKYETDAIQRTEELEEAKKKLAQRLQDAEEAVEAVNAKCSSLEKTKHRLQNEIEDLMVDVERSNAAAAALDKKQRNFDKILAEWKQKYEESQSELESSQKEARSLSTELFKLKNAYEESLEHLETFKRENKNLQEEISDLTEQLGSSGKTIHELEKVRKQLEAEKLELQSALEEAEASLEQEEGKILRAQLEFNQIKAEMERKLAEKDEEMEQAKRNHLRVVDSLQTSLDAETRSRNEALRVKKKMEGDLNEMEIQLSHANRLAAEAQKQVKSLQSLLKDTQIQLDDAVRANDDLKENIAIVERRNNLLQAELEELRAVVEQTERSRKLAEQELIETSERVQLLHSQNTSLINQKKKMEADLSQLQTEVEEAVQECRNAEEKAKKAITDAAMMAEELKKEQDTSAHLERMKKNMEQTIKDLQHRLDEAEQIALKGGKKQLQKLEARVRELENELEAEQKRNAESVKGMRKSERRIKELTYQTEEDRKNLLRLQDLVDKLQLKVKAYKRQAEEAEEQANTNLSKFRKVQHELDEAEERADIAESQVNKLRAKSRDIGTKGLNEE
T1 sequence (P85100 whole entry partner): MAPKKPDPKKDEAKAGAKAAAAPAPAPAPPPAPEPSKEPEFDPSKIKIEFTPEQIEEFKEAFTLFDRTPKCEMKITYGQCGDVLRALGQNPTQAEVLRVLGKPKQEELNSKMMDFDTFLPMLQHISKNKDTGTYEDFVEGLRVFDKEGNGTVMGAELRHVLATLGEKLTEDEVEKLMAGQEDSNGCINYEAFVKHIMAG
T1 sequence (Q3SZE5 whole entry partner): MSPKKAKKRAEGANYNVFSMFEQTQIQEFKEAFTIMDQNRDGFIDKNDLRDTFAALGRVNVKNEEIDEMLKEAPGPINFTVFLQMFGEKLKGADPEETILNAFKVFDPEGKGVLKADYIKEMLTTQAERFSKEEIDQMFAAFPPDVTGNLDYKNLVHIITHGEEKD
Experimental: To evaluate the effect of the compound 5-(3,4-difluorobenzyl)-8-((1r,4r)-4-methylcyclohexyl)-6,9-dioxo-2,5,8-triazaspiro[3.5]nonane-2-carbaldehyde on the ATPase activity of full-length cardiac myosin in the context of the native sarcomere, skinned myofibril assays were performed. Bovine cardiac myofibrils were obtained by homogenizing bovine cardiac left ventricular tissue in the presence of a detergent such as triton X-100. Such treatment removes membranes and a majority of the soluble cytoplasmic proteins but leaves intact the cardiac sarcomeric acto-myosin apparatus. Myofibril preparations retain the ability to hydrolyze ATP in a Ca^2+ regulated manner. ATPase activities of such myofibril preparations in the presence and absence of the compound 5-(3,4-difluorobenzyl)-8-((1r,4r)-4-methylcyclohexyl)-6,9-dioxo-2,5,8-triazaspiro[3.5]nonane-2-carbaldehyde was assayed at Ca^2+ concentrations activating to a defined fraction of the maximal rate (i.e., […], 75%). The compound 5-(3,4-difluorobenzyl)-8-((1r,4r)-4-methylcyclohexyl)-6,9-dioxo-2,5, 8-triazaspiro [3.5]nonane-2-carbaldehyde was assessed for its ability to inhibit the steady-state ATPase activity of bovine cardiac myofibrils using pyruvate kinase and lactate dehydrogenase (PK/LDH)-coupled enzyme system. This assay regenerates myosin-produced ADP into ATP by oxidizing NADH, producing an absorbance change at 340 nm. Prior to testing this compound, the bovine cardiac myofibrils were assessed for their calcium responsiveness and the calcium concentration that achieves either a 50% (pCa50) or 75% (pCa75) activation of the myofibril system was chosen as the final condition for assessing the inhibitory activity of this compound. All enzymatic activity was measured in a buffered solution containing 12 mM PIPES (piperazine-N,N′-bis(2-ethanesulfonic acid), 2 mM magnesium chloride at pH 6.8 (PM 12 buffer). Final assay conditions were 1 mg/mL of bovine cardiac myofibrils, 4 U/mL pyruvate kinase, 6 U/mL lactate dehydrogenase, 50 μM ATP, 0.1 mg/mL BSA (bovine serum albumin), 10 ppm antifoam, 1 mM DTT, 0.5 mM NADH, 1.5 mM PEP, 0.6 mM EGTA, and an amount of CaCl2) sufficient to achieve either 50% or 75% activation of the myofibril ATPase activity. The compound tested was prepared in accordance with the synthetic procedures described herein.

| Projected t1/2 [1] | clearance [2] | half-life [2] | Vd [2] | CDMF IC15 [3] | Structure (SMILES) |
| --- | --- | --- | --- | --- | --- |
| 28.3 h | 52.6 mL/min/kg | 3.34 h | 13 L/kg | 1500 nM | C[C@H]1CC[C@H](N2CC(=O)N(Cc3ccc(F)c(F)c3)C3(CN(C=O)C3)C2=O)CC1 [Compound 1, 5-(3,4-difluorobenzyl)-8-((1r,4r)-4-methylcyclohexyl)-6,9-dioxo-2,5,8-triazaspiro[3.5]nonane-2-carbaldehyde] |
| 62 h | 8.23 mL/min/kg | 4.84 h | 2.98 L/kg | 1100 nM | CC(=O)N1CC2(C1)C(=O)N(c1ccc(C#N)cc1F)CC(=O)N2Cc1ccc(C(F)(F)F)cc1 [Comparator D, 4-(2-acetyl-6,9-dioxo-5-(4-(trifluoromethyl)benzyl)-2,5,8-triazaspiro[3.5]nonan-8-yl)-3-fluorobenzonitrile] |
| 41 h | 20.2 mL/min/kg | 3.3 h | 5.2 L/kg | 1100 nM | O=C1[C@H](C2COC2)N(Cc2ccc(C(F)(F)F)cc2)C(=O)CN1c1ncc(Cl)cc1F [Comparator C, (S)-1-(5-chloro-3-fluoropyridin-2-yl)-3-(oxetan-3-yl)-4-(4-(trifluoromethyl)benzyl)piperazine-2,5-dione, reference compound] |
| 51.7 h | 18.8 mL/min/kg | 5.4 h | 8.23 L/kg | 1300 nM | O=CN1CC2(C1)C(=O)N([C@H]1CC[C@H](C(F)F)CC1)CC(=O)N2Cc1ccc(C(F)(F)F)cc1 [Comparator E, 8-((1r,4r)-4-(difluoromethyl)cyclohexyl)-6,9-dioxo-5-(4-(trifluoromethyl)benzyl)-2,5,8-triazaspiro[3.5]nonane-2-carbaldehyde] |
| 38.7 h | 29.6 mL/min/kg | 6.48 h | 15.1 L/kg | 1800 nM | O=CN1CC2(C1)C(=O)N(c1ccc(F)cc1F)CC(=O)N2Cc1ccc(Cl)cc1 [Comparator A, 5-(4-chlorobenzyl)-8-(2,4-difluorophenyl)-6,9-dioxo-2,5,8-triazaspiro[3.5]nonane-2-carbaldehyde] |
